Biological target: Protein kinase C alpha type (Homo sapiens, UniProt P17252)
Assay: Inhibition of human recombinant PKCalpha

SMILES	IC50 [µM]
O=C(CCc1ccc(O)c(O)c1)C[C@H](CCc1ccc(O)c(O)c1)O[C@@H]1OC[C@@H](O)[C@H](O)[C@H]1O [OREGONIN]	18
O=C(CCc1ccc(O)c(O)c1)C[C@@H](O)CCc1ccc(O)c(O)c1 [HIRSUTANONOL]	13.3
OC[C@H]1O[C@@H](O[C@H](CCCCc2ccc(O)c(O)c2)CCc2ccc(O)c(O)c2)[C@H](O)[C@@H](O)[C@@H]1O	2.83
Oc1ccc(CCCC[C@@H](O)CCc2ccc(O)c(O)c2)cc1O	4.81
O=C(/C=C/CCc1ccc(O)c(O)c1)CCc1ccc(O)c(O)c1 [DEHYDROHIRSUTANONOL]	4.26
